Source: patent US20260274894A1, “CYCLIC POLYPEPTIDE COMPOUND AND USE THEREOF” (BIVISION PHARMACEUTICALS, INC., priority 2023, published 2026)
Numbered stars: 1 amine (or outer) side, 2 acyl side, 3 side chain; on linkers, the order of the positions; unused ones are H or OH. Bridge positions count the residues as written; N and C are the ends. Square brackets hold non-standard residues; d marks the D form. Side chains are listed from the residue outwards. Peptide text beside a SMILES is read from it. * marks the point of attachment. ξ: configuration not given here. TBMB(SCH2CH2NH-DOTA) = O=C(O)CN1CCN(CC(=O)O)CCN(CC(=O)NCCSCc2cc(C[*:1])cc(C[*:2])c2)CCN(CC(=O)O)CC1; NH(CH2)2(4-DOTA-piperazinyl) = O=C(O)CN1CCN(CC(=O)O)CCN(CC(=O)N2CCN(CCN*)CC2)CCN(CC(=O)O)CC1; NH(CH2)2O(CH2)2NHDOTA = O=C(O)CN1CCN(CC(=O)O)CCN(CC(=O)NCCOCCN*)CCN(CC(=O)O)CC1; X4 = O=C(O)CN1CCN(CC(=O)O)CCN(CC(=O)N2CCc3cc(C(=O)*)ccc3C2)CCN(CC(=O)O)CC1; NH(CH2)5NHDOTA = O=C(O)CN1CCN(CC(=O)O)CCN(CC(=O)NCCCCCN*)CCN(CC(=O)O)CC1; X2 = O=C(O)CN1CCN(CC(=O)O)CCN(CC(=O)N2CCN(CCCN*)CC2)CCN(CC(=O)O)CC1; DOTA = O=C(O)CN1CCN(CC(=O)O)CCN(CC(=O)*)CCN(CC(=O)O)CC1; Azetidine3carboxylic = O=C(C1CN([*:1])C1)[*:2]; γGlu = O=C(O)[C@H](CCC(=O)[*:2])N[*:1]; βAsp = O=C(O)[C@H](CC(=O)[*:2])N[*:1]; mXylylene = c1cc(C[*:1])cc(C[*:2])c1; ξγGlu = O=C(O)C(CCC(=O)[*:2])N[*:1]; Ethylenediamine = C(CN[*:2])N[*:1]; Cha = N[C@@H](CC1CCCCC1)C(=O)O; d(β3hD) = NC(CC(=O)O)CC(=O)O; Decanoyl = CCCCCCCCCC(=O)*; Octanoyl = CCCCCCCC(=O)*; Dap = NC[C@H](N)C(=O)O; Hexanoyl = CCCCCC(=O)*; CO = O=C([*:1])[*:2]; ξP = O=C(O)C1CCCN1; Ava = NCCCCC(=O)O; ξC = NC(CS)C(=O)O; NHBu = CCCCN*

Biological target: T1, FAP protein (Homo sapiens, UniProt Q12884)
T1 construct: purchased Sinobiological
T1 sequence (Q12884 1-760): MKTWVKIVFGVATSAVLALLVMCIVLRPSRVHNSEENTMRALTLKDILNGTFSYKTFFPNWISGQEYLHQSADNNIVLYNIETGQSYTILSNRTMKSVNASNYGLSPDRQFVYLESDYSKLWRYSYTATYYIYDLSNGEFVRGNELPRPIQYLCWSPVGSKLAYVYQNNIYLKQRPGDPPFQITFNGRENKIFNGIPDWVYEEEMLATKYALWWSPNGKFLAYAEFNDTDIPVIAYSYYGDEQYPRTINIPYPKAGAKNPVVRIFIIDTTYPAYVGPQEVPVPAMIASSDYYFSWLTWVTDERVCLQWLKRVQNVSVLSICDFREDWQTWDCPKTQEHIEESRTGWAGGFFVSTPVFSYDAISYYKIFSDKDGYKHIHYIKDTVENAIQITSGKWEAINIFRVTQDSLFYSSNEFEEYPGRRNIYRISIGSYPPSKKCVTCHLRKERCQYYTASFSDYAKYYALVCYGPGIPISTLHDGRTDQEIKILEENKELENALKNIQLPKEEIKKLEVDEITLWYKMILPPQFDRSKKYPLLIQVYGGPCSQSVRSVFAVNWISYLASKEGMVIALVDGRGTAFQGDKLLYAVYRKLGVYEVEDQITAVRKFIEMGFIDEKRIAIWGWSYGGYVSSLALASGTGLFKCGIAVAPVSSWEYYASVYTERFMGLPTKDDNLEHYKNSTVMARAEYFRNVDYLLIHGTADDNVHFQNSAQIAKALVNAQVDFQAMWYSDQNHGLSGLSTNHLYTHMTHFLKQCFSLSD
Experiment: Biacore test of compound affinity to FAP protein
Settings: Biacore 8K, SA chip, 15° C., 1:1 binding model
Method: The Biacore 8K (Cytiva) instrument was used to detect ligand binding of the FAP protein (Sinobiological). FAP protein was captured on the SA chip. […] The sensor surface was conditioned by injecting 1M NaCl three consecutive times in 50 mM NaOH. After each ligand injection, additional cleaning was performed using isopropanol in 1M NaCl and 50 mM NaOH (flow path 1 and 2, flow rate of 10 μL/min, injection time of 60 s). […] The analyte was run under the following conditions: analysis temperature of 15° C., analysis step=all set to LMW kinetics; cycle type=single cycle (contact time of 90 s, dissociation time of 1800 s, flow rate of 30 μL/min, flow channels 1 and 2); channel detection=2-1. Data was evaluated using the Biacore Insight Evaluation Software, and the data were fitted to a 1:1 binding model. The Biacore results are shown in Table 2 below: pKD=−Log KD, where KD is the binding affinity of the compound to the FAP protein as measured by Biacore.

SMILES	pKD (FAP)
CCCCNC(=O)N[C@H]1CSCc2cccc(c2)CSC[C@@H](C(=O)N[C@@H](CCC(=O)NCCN2CCN(C(=O)CN3CCN(CC(=O)O)CCN(CC(=O)O)CCN(CC(=O)O)CC3)CC2)C(=O)O)NC(=O)[C@H](CC2CCCCC2)NC(=O)[C@H](CCC(N)=O)NC(=O)[C@H]([C@@H](C)O)NC(=O)[C@@H]2CCCN2C(=O)C2CN(C2)C1=O [JHDC46, nBu-urea-[Cys(3MePy)-hhy39-Pro-Thr-Gln-hhy34-Cys]-Glu-(aminoethylpiperazine-DOTA)-OH] ({NHBu-CO}-C[Azetidine3carboxylic]PTQ[Cha]CE(NH(CH2)2(4-DOTA-piperazinyl))-OH; linker 1-7 via mXylylene)	B (B: 7<pKD<8)
CCCCCC(=O)N[C@H]1CSCc2cccc(c2)CSC[C@@H](C(=O)N[C@@H](CCC(=O)NCCNC(=O)CN2CCN(CC(=O)O)CCN(CC(=O)O)CCN(CC(=O)O)CC2)C(=O)O)NC(=O)[C@H](Cc2ccccc2)NC(=O)[C@H](CCC(N)=O)NC(=O)[C@H]([C@@H](C)O)NC(=O)[C@@H]2CCCN2C(=O)C2CN(C2)C1=O (single isomer, unassigned) [^175Lu-JHDC23]	B (B: 7<pKD<8)

Same assay, conditions: Biacore 8K, SA chip, 15° C., 1:1 binding model; read-out: pKD (FAP) (converted)

SMILES	Kd [nM]
CCCCCC(=O)N[C@H]1CSCc2cccc(c2)CSCC(C(=O)N[C@@H](CCC(=O)NCCCCCNC(=O)CN2CCN(CC(=O)O)CCN(CC(=O)O)CCN(CC(=O)O)CC2)C(=O)O)NC(=O)[C@H](Cc2ccccc2)NC(=O)[C@H](CCC(N)=O)NC(=O)[C@H]([C@@H](C)O)NC(=O)C2CCCN2C(=O)C2CN(C2)C1=O (stereo partly drawn) [JHDC29, Hex[Cys(3MeBn)-hhy39-Pro-Thr-Gln-Phe-Cys]-Glu-(PDA-DOTA)-OH] (Hexanoyl-C[Azetidine3carboxylic][ξP]TQF[ξC]E(NH(CH2)5NHDOTA)-OH; linker 1-7 via mXylylene)	10 to 100
CCCCCCCC(=O)N[C@H]1CSCc2cc(CSCCNC(=O)CN3CCN(CC(=O)O)CCN(CC(=O)O)CCN(CC(=O)O)CC3)cc(c2)CSC[C@@H](C(=O)NC(CCC(=O)N[C@@H](CCCNC(=N)N)C(=O)NCC(=O)N[C@@H](CC(N)=O)C(=O)O)C(=O)O)NC(=O)[C@H](CC2CCCCC2)NC(=O)[C@H](CCC(N)=O)NC(=O)[C@H]([C@@H](C)O)NC(=O)C2CCCN2C(=O)C2CN(C2)C1=O (stereo partly drawn) [JHDC21, Oct[Cys(tMeBn-DOTA-AET)-hhy39-Pro-Thr-Gln-hhy34-Cys]-Glu-(Arg-Gly-Asp(NH2))-OH] (Octanoyl-C[Azetidine3carboxylic][ξP]TQ[Cha]C[ξγGlu]RGN-OH; linker 1-7 via TBMB(SCH2CH2NH-DOTA))	10 to 100
CCCCNC(=O)N[C@H]1CSCc2cccc(c2)CSCC(C(=O)N[C@H](CC(=O)O)CC(=O)NCCNC(=O)CN2CCN(CC(=O)O)CCN(CC(=O)O)CCN(CC(=O)O)CC2)NC(=O)[C@H](Cc2ccccc2)NC(=O)[C@H](CCC(N)=O)NC(=O)[C@H]([C@@H](C)O)NC(=O)C2CCCN2C(=O)C2CN(C2)C1=O (stereo partly drawn) [JHDC35, nBu-urea-[Cys(3MeBn)-hhy39-Pro-Thr-Gln-Phe-Cys]-p-Glu-(EDA-DOTA)-OH] ({NHBu-CO}-C[Azetidine3carboxylic][ξP]TQF[ξC][d(β3hD)]-{Ethylenediamine-DOTA}; linker 1-7 via mXylylene)	10 to 100
CCCCCC(=O)N[C@H]1CSCc2cccc(c2)CSCC(C(=O)N[C@@H](CCC(=O)NCCCN2CCN(C(=O)CN3CCN(CC(=O)O)CCN(CC(=O)O)CCN(CC(=O)O)CC3)CC2)C(=O)O)NC(=O)[C@H](Cc2ccccc2)NC(=O)[C@H](CCC(N)=O)NC(=O)[C@H]([C@@H](C)O)NC(=O)C2CCCN2C(=O)C2CN(C2)C1=O (stereo partly drawn) [JHDC45, Hex-[Cys(3MeBn)-hhy39-Pro-Thr-Gln-Phe-Cys]-Glu-(aminopropylpiperazine-DOTA)-NH2] (Hexanoyl-C[Azetidine3carboxylic][ξP]TQF[ξC]E(X2)-OH; linker 1-7 via mXylylene)	< 10
CCCCCC(=O)N[C@H]1CCCCn2cc(nn2)CSC[C@@H](C(=O)N[C@@H](CCCCNC(=O)COCCNC(=O)CN2CCN(CC(=O)O)CCN(CC(=O)O)CCN(CC(=O)O)CC2)C(=O)O)NC(=O)[C@H](Cc2ccccc2)NC(=O)[C@H](CCC(N)=O)NC(=O)[C@H]([C@@H](C)O)NC(=O)[C@@H]2CCCN2C(=O)C2CN(C2)C1=O [JHDC12, Hex[2AHA(Triazole)-hhy39-Pro-Thr-Gln-Phe-CSMC]-Lys-(AEAA-DOTA)-OH]	10 to 100
CCCCNC(=O)N[C@H]1CSCc2cccc(c2)CSCC(C(=O)N[C@@H](CNC(=O)CCCCNC(=O)CN2CCN(CC(=O)O)CCN(CC(=O)O)CCN(CC(=O)O)CC2)C(=O)O)NC(=O)[C@H](Cc2ccccc2)NC(=O)[C@H](CCC(N)=O)NC(=O)[C@H]([C@@H](C)O)NC(=O)C2CCCN2C(=O)C2CN(C2)C1=O (stereo partly drawn) [JHDC41, nBu-urea-[Cys(3MeBn)-hhy39-Pro-Thr-Gln-Phe-Cys]-DAPA-(APTA-DOTA)-OH] ({NHBu-CO}-C[Azetidine3carboxylic][ξP]TQF[ξC][Dap]([Ava-DOTA])-OH; linker 1-7 via mXylylene)	10 to 100
CCCCCCCCCC(=O)N[C@H]1CSCc2cccc(c2)CSC[C@@H](C(=O)N[C@@H](CCC(=O)N[C@@H](CCCNC(=N)N)C(=O)NCC(=O)N[C@@H](CC(=O)NCCNC(=O)CN2CCN(CC(=O)O)CCN(CC(=O)O)CCN(CC(=O)O)CC2)C(=O)O)C(=O)O)NC(=O)[C@H](CC2CCCCC2)NC(=O)[C@H](CCC(N)=O)NC(=O)[C@H]([C@@H](C)O)NC(=O)[C@@H]2CCCN2C(=O)C2CN(C2)C1=O [JHDC19, Dec[Cys(3MeBn)-hhy39-Pro-Thr-Gln-hhy34-Cys]-Glu-(Arg-Gly-Asp(EDA-DOTA))-OH] (Decanoyl-C[Azetidine3carboxylic]PTQ[Cha]C[γGlu]RG[βAsp]-{Ethylenediamine-DOTA}; linker 1-7 via mXylylene)	10 to 100
CCCCCC(=O)N[C@H]1CSCc2cccc(c2)CSCC(C(=O)N[C@@H](CNC(=O)CCCCNC(=O)CN2CCN(CC(=O)O)CCN(CC(=O)O)CCN(CC(=O)O)CC2)C(=O)O)NC(=O)[C@H](Cc2ccccc2)NC(=O)[C@H](CCC(N)=O)NC(=O)[C@H]([C@@H](C)O)NC(=O)C2CCCN2C(=O)C2CN(C2)C1=O (stereo partly drawn) [JHDC40, Hex-[Cys(3MeBn)-hhy39-Pro-Thr-Gln-Phe-Cys]-DAPA-(APTA-DOTA)-OH] (Hexanoyl-C[Azetidine3carboxylic][ξP]TQF[ξC][Dap]([Ava-DOTA])-OH; linker 1-7 via mXylylene)	10 to 100
CCCCNC(=O)N[C@H]1CSSCC(C(=O)N[C@@H](CCC(=O)NCCOCCNC(=O)CN2CCN(CC(=O)O)CCN(CC(=O)O)CCN(CC(=O)O)CC2)C(=O)O)NC(=O)[C@H](Cc2ccccc2)NC(=O)[C@H](CCC(N)=O)NC(=O)[C@H]([C@@H](C)O)NC(=O)C2CCCN2C(=O)C2CN(C2)C1=O (stereo partly drawn) [JHDC31, nBu-urea-[Cys(SS)-hhy39-Pro-Thr-Gln-Phe-Cys]-Glu-(DAPEG2-DOTA)-OH] ({NHBu-CO}-C[Azetidine3carboxylic][ξP]TQF[ξC]E(NH(CH2)2O(CH2)2NHDOTA)-OH; disulfide 1-7)	10 to 100
CCCCCC(=O)N[C@H]1CSCc2cccc(c2)CSCC(C(=O)N[C@@H](CCC(=O)NCCNC(=O)c2ccc3c(c2)CCN(C(=O)CN2CCN(CC(=O)O)CCN(CC(=O)O)CCN(CC(=O)O)CC2)C3)C(=O)O)NC(=O)[C@H](Cc2ccccc2)NC(=O)[C@H](CCC(N)=O)NC(=O)[C@H]([C@@H](C)O)NC(=O)C2CCCN2C(=O)C2CN(C2)C1=O (stereo partly drawn) [JHDC25, Hex[Cys(3MeBn)-hhy39-Pro-Thr-Gln-Phe-Cys]-Glu-(EDA-hhy02-DOTA)-OH] (Hexanoyl-C[Azetidine3carboxylic][ξP]TQF[ξC]E([Ethylenediamine-X4])-OH; linker 1-7 via mXylylene)	10 to 100
